Results taken from article PMC6264423, “Phytochemical and Cytotoxic Investigations of Curcuma mangga Rhizomes” (Molecules, 2011).
Converted amounts (≈) assume the structure as drawn.

Tests used:
[1] = system: nasopharyngeal epidermoid cell line (KB); experiment: in-vitro neutral red cytotoxicity assay, KB; type: cell-based; conditions: Homo sapiens, mean ± SD of three replicates
Description: (§1) In-vitro neutral red cytotoxicity assay: All cancer cell lines were purchased from the American Type Culture Collection (ATCC, USA), medium like RPMI 1640, McCOY’S 5A, Eagle Minimum Essential Medium (EMEM) from Sigma-Aldrich, USA. The supplements or antibiotics such as foetal bovine serum, penicillin/streptomycin (100 μg/mL), amphotericin B (50 μg/mL), tripsin-EDTA (100X) were purchased from PAA Lab, Austria as well as sodium pyruvate (11 mg/mL) from Sigma-Aldrich, USA. The cells were cultured in a Shel Lab water-jacketed CO2 incubator with 25 cm^3 tissue culture flasks (Nunc, Denmark), which was observed routinely under inverted microscope (Leica DMI3000 B, Germany) for any contamination and seeded into 96-well flat bottom microtiter plate (Nunc, Denmark). The extract or pure compounds were dissolved in dimethyl sulfoxide (DMSO, Molecular Biology Grade, >99.9%) from Sigma-Aldrich, USA. The 96-well microtiter plate was agitated rapidly on a microtiter plate incubator shaker (LT Biomax 500) and absorbance of eluted dye measured at 540 nm using a ELISA microplate reader (EMax microplate reader of Molecular Devices, USA). Cell lines such as MCF-7, A549, Ca Ski and HT-29 were maintained in RPMI 1640 medium, HCT 116 in McCOY’S 5A Medium, KB and MRC-5 cells in Eagle Minimum Essential Medium (EMEM). All of these media were supplemented with 10% foetal bovine serum (FBS), penicillin/streptomycin, amphotericin B and only additional sodium pyruvate in EMEM. The cells were cultured in tissue culture flask in 5% CO2 incubator kept at 37 °C in a humidified atmosphere and observed routinely under inverted microscope from any contaminations. Each fresh medium was replaced every 2 or 3 days until cell confluence was achieved and the cells were detached by using tripsin-EDTA.

[2] = system: colon cell line (HCT 116); experiment: in-vitro neutral red cytotoxicity assay, HCT 116; type: cell-based; conditions: Homo sapiens, mean ± SD of three replicates
Description: as §1

[3] = system: non-cancer human fibroblast cell line (MRC-5); experiment: in-vitro neutral red cytotoxicity assay, MRC-5; conditions: MRC5, read-out: IC50 values, MRC-5
Description: as §1

[4] = system: hormone-dependent breast cell line (MCF-7); experiment: in-vitro neutral red cytotoxicity assay, MCF-7; type: cell-based; conditions: Homo sapiens, MCF7, mean ± SD of three replicates
Description: as §1

lung cell line (A549) = experiment: in-vitro neutral red cytotoxicity assay, A549; type: cell-based; conditions: Homo sapiens, mean ± SD of three replicates
Description: as §1

colon cell line (HT-29) = experiment: in-vitro neutral red cytotoxicity assay, HT-29; type: cell-based; conditions: Homo sapiens, mean ± SD of three replicates
Description: as §1

[5] = system: cervical cell line (Ca Ski); experiment: in-vitro neutral red cytotoxicity assay, Ca Ski; type: cell-based; conditions: Homo sapiens, mean ± SD of three replicates
Description: as §1

[6] = system: human cancer cell lines (MCF-7, KB, A549, Ca Ski, HCT 116, HT-29); experiment: in-vitro neutral red cytotoxicity assay, panel of six cancer cell lines; type: cell-based
Description: In-vitro neutral red cytotoxicity assay: All cancer cell lines were purchased from the American Type Culture Collection (ATCC, USA), medium like RPMI 1640, McCOY’S 5A, Eagle Minimum Essential Medium (EMEM) from Sigma-Aldrich, USA. The supplements or antibiotics such as foetal bovine serum, penicillin/streptomycin (100 μg/mL), amphotericin B (50 μg/mL), tripsin-EDTA (100X) were purchased from PAA Lab, Austria as well as sodium pyruvate (11 mg/mL) from Sigma-Aldrich, USA. The cells were cultured in a Shel Lab water-jacketed CO2 incubator with 25 cm^3 tissue culture flasks (Nunc, Denmark), which was observed routinely under inverted microscope (Leica DMI3000 B, Germany) for any contamination and seeded into 96-well flat bottom microtiter plate (Nunc, Denmark). The extract or pure compounds were dissolved in dimethyl sulfoxide (DMSO, Molecular Biology Grade, >99.9%) from Sigma-Aldrich, USA. The 96-well microtiter plate was agitated rapidly on a microtiter plate incubator shaker (LT Biomax 500) and absorbance of eluted dye measured at 540 nm using a ELISA microplate reader (EMax microplate reader of Molecular Devices, USA). Cell lines such as MCF-7, A549, Ca Ski and HT-29 were maintained in RPMI 1640 medium, HCT 116 in McCOY’S 5A Medium, KB and MRC-5 cells in Eagle Minimum Essential Medium (EMEM). […]

[7] = system: non-cancer human fibroblast cell line (MRC-5)
Description: as §1

Row | Compound | IC50 [1] [µg/mL] | IC50 [2] [µg/mL] | IC50 [3] [µg/mL] | IC50 [4] [µg/mL] | IC50 (lung cell line (A549)) [µg/mL] | IC50 (colon cell line (HT-29)) [µg/mL] | IC50 [5] [µg/mL] | cytotoxic activity on the investigated human cancer cell lines (in words) ([6]; all investigated human cancer cell lines) | IC50 ([6]; Homo sapiens, span over the six cancer cell lines, read-out: IC50 values across all tested human cancer cell lines) [µg/mL] | effect on the normal human fibroblast cell line (in words) [7]
1 | C=C1CC[C@H]2C(C)(C)CCC[C@]2(C)[C@H]1CC=C(C=O)CC(=O)O (stereo in doubt) [Compound 3, zerumin A] | 11.7 ± 1.15 (≈ 36.7 µM) | 9.3 ± 0.5 (≈ 29.2 µM) | 16.2 ± 0.25 (≈ 50.9 µM) | 8.7 ± 0.29 (≈ 27.3 µM) | 9.2 ± 0.62 (≈ 28.9 µM) | 14.9 ± 0.4 (≈ 46.8 µM) | 14.2 ± 0.06 (≈ 44.6 µM) |  |  | 
2 | C=C1CCC2C(C)(C)CCC[C@]2(C)C1C/C=C(/C=O)CC=O (stereo partly shown) [Compound 1, (E)-labda-8(17),12-dien-15,16-dial] | 14.5 ± 0.87 (≈ 47.9 µM) | 7.6 ± 0.23 (≈ 25.1 µM) | 8.9 ± 0.49 (≈ 29.4 µM) | 4.3 ± 1.3 (≈ 14.2 µM) | 19.9 ± 0.38 (≈ 65.8 µM) | 6.3 ± 0.26 (≈ 20.8 µM) | 12.1 ± 0.35 (≈ 40 µM) |  |  | 
3 | C=C1CCC2C(C)(C)CCC[C@]2(C)C1/C=C/C(C)=O (stereo partly shown) [Compound 2, (E)-15,16-bisnorlabda-8(17),11-dien-13-one] | > 100 | > 100 | > 100 | > 100 | > 100 | > 100 | > 100 | no cytotoxic activity |  | 
4 | COc1cccc2c1C(=O)c1c(O)c3c(c(O)c1C2=O)C[C@@](O)(C(=O)CO)C[C@@H]3O[C@H]1C[C@H](N)[C@H](O)[C@H](C)O1 [Doxo *, Doxorubicin, reference compound] | 0.27 ± 0.01 (≈ 0.497 µM) | 0.24 ± 0.04 (≈ 0.442 µM) | 0.4 ± 0.03 (≈ 0.736 µM) | 0.05 ± 0.01 (≈ 0.092 µM) | 0.58 ± 0.01 (≈ 1.07 µM) | 0.33 ± 0.03 (≈ 0.607 µM) | 0.18 ± 0.06 (≈ 0.331 µM) |  | 0.05 to 0.58 (≈ 0.092 to 1.07 µM) | 
5 | Ethyl acetate |  |  |  |  |  |  |  |  |  | caused no damage
